From patent US20260167972A1, “AMINO ACID DERIVATIVES AS NOVEL DELIVERY AGENTS FOR FUNCTIONAL DELIVERY OF OLIGONUCLEOTIDES” (University of Rochester, priority 2022, published 2026)

Tests used:
[1] = system: A549 lung adenocarcinoma cells; assay: Cellular uptake of FITC-siRNA by fluorescence microscopy; type: cell-based, human; conditions: A549 cells dosed 4 hours; green fluorescence, FIG. 5
Procedure: The N-X-Phe-DAP derivatives facilitate functional delivery of siRNA. N-X-Phe-DAP derivatives (100 μM) were incubated with a fluorescently labelled siRNA (FITC-siRNA, 600 nM) for 30 minutes in the dark followed by dilution into DMEM. A549 lung carcinoma cells were then dosed with these solutions for 4 hours, after which N-X-Phe-DAP/siRNA cellular uptake was visualized by confocal microscopy to visual FITC-siRNA in fixed cells in which the nuclei had been stained with DAPI nuclear stain (FIG. 5). Translocation of siRNA with the N-X-Phe-DAP derivatives was compared with Lipofectamine by observing the presence of green fluorescence (FITC-siRNA) in the images.
Sample Preparation for Cell-Based Experiments: For delivery analysis and functional knockdown, N-X-Phe-DAP derivatives (10 μL, 1 mM) or Lipofectamine 3000 (6 μL) was mixed with TTF-1 siRNA (Santa Cruz Biotechnology sc-36756, 6 μL, 10 μM) in Ultrapure™ DNase/RNase-Free Distilled Water (Invitrogen 10977015) to give a final volume of 100 μL. These mixtures were incubated for 30 minutes at room temperature, followed by dilution into 1×DMEM (Gibco 11965092, 1.9 mL). For cytotoxicity assays, N-X-Phe-DAP derivatives (10 μL, 1 mM) were diluted into 1×DMEM (Gibco 11965092, 1.9 mL).
N-X-Phe-DAP-siRNA Cellular Delivery Analysis A549 lung adenocarcinoma cells (ATCC #) were seeded at a density of 1.05×10^5 cells/well in a glass bottom 24-well plate (500 μL) and grown to 70-90% confluency. Cells were washed with 1× phosphate buffered saline (PBS, Gibco 14190144), samples were added (500 μL/well), and incubated for 4 h at 37° C., 5% C02. After 4 h, media was removed, cells were washed with 1×PBS, and fixed with 4% paraformaldehyde solution. After 10 min, cells were washed twice with 1×PBS and incubated with DAPI stain (1 μg/mL) in the dark. After 5 min, cells were washed three times with 1×DPBS and stored at −20° C. until imaging. A Nikon T1 epifluorescence microscope was used for fluorescent imaging. Images were collected at 40× magnification using NIS-Elements Viewer (Nikon) software. All images were processed in Adobe Photoshop by selecting “image” then “Adjustments” then “Levels”. In the pop-up window, “Channel” was selected followed by “Green” and Output levels were adjusted with an upper limit of 200. In the sample pop-up window under “Options” the “Enhance Per Channel Contrast” was selected under algorithms.

[2] = system: cells; assay: Delivery of fluorescent protein encoding mRNA and plasmid DNA into cells (FIG. 50); type: cell-based; conditions: 14 nM 1-Nap-Phe-DAP, 24 hours
Procedure: FIG. 50 has images of cells treated with a mixture of 1-Nap-Phe-DAP with fluorescent protein encoding mRNA (panel A) and plasmid DNA (panel B). […] In this example, 14 nM of the 1-Nap-Phe-DAP was used with 1 microgram of mRNA or pDNA for 24 hours, after which the cells were images.

| SMILES | FITC-siRNA delivery compared with Lipofectamine [1] | delivery of fluorescent protein encoding mRNA into cells ([2]; 1 microgram mRNA, FIG. 50 panel A) | delivery of plasmid DNA into cells ([2]; 1 microgram pDNA, FIG. 50 panel B) |
| --- | --- | --- | --- |
| NCCCNC(=O)[C@H](Cc1ccccc1)NC(=O)Cc1cccc2ccccc12 [1-Nap-Phe-DAP] | improved siRNA delivery | fluorescence visible in the cytosol | fluorescence visible in the cytosol |
| NCCCNC(=O)[C@H](Cc1ccccc1)NC(=O)Cc1ccc2ccccc2c1 [2-Nap-Phe-DAP] | on par with Lipofectamine | – | – |
| NCCCNC(=O)[C@H](Cc1ccccc1)NC(=O)OCc1ccccc1 [Cbz-Phe-DAP] | improved siRNA delivery | – | – |
| NCCCNC(=O)[C@H](Cc1ccccc1)NC(=O)C1CCCCC1 [Cyc-Phe-DAP] | on par with Lipofectamine | – | – |
| NCCCNC(=O)[C@H](Cc1ccccc1)NC(=O)CC1c2ccccc2-c2ccccc21 [Fm-Phe-DAP] | on par with Lipofectamine | – | – |
| NCCCNC(=O)[C@H](Cc1cccc(F)c1)NC(=O)OCC1c2ccccc2-c2ccccc21 [Fmoc-3F-Phe-DAP] | on par with Lipofectamine | – | – |
| NCCCNC(=O)[C@H](Cc1c(F)c(F)c(F)c(F)c1F)NC(=O)OCC1c2ccccc2-c2ccccc21 [Fmoc-F5-Phe-DAP] | improved siRNA delivery | – | – |
| NCCCNC(=O)[C@H](Cc1ccccc1)NC(=O)OCC1c2ccccc2-c2ccccc21 [Fmoc-Phe-DAP] | improved siRNA delivery | – | – |
| CCCCCCC(=O)N[C@@H](Cc1ccccc1)C(=O)NCCCN [Hex-Phe-DAP] | improved siRNA delivery | – | – |
| NCCCNC(=O)[C@H](Cc1ccccc1)NC(=O)CCCc1ccc2ccc3cccc4ccc1c2c34 [Pyr-Phe-DAP] | improved siRNA delivery | – | – |
